In the assay the target is Phosphatidylinositol 4,5-bisphosphate 3-kinase catalytic subunit alpha isoform (Homo sapiens, UniProt P42336). The experiment in a line: Filter-Binding-Assay: This PI3Kalpha assay provides an IC50 value indicative of the activity of the compounds to inhibit PI3 kinase alpha activity. Inhibition of PI3 kinase would be expected to be indicative of activity in treating conditions of excessive or anomalous cell proliferation, such as cancers. See also J. A. Engelman, Nature Reviews Cancer, 2009, 9, 550-562; A. Carnero, Expert Opin. Investig. Drugs, 2009, 18, 1265-1277 and P. Liu et al., Nature Reviews Drug Discovery, 2009, 8, 627-64.
Chain of Phosphatidylinositol 4,5-bisphosphate 3-kinase catalytic subunit alpha isoform (P42336 whole entry, canonical isoform): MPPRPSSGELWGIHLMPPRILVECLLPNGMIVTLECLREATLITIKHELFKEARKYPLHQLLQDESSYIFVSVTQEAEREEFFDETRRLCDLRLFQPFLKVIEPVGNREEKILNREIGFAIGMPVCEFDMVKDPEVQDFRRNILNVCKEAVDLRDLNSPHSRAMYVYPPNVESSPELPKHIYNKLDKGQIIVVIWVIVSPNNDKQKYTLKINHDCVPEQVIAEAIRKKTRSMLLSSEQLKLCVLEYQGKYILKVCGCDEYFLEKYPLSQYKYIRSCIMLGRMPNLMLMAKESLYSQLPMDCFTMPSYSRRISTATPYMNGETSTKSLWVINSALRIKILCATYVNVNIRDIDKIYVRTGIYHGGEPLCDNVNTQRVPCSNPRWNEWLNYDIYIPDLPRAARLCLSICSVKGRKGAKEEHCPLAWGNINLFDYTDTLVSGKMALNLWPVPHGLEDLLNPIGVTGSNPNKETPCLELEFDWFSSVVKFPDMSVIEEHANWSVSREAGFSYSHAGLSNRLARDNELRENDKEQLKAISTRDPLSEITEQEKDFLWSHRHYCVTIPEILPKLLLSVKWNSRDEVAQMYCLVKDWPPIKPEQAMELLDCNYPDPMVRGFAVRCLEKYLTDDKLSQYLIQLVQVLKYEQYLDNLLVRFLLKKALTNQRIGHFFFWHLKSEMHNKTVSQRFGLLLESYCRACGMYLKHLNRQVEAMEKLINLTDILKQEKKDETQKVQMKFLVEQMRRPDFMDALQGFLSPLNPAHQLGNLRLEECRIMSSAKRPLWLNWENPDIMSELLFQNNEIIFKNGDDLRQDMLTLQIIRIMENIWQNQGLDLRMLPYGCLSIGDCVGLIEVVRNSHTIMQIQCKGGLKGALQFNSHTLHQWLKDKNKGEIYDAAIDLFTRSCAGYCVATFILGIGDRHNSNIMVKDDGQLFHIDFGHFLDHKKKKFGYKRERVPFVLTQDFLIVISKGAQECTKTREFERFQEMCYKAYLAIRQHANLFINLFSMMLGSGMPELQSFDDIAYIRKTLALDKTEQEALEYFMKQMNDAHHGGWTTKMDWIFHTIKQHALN

For orientation: IC50 means the midpoint of a concentration-inhibition curve. Read a low IC50 as greater potency.

For the compound `CCc1ncnc(N2CCC(O)CC2)c1C#Cc1cnc(C)c(NS(C)(=O)=O)c1`, the IC50 came out at 0.86 nM.

As to `Cc1ncc(C#Cc2c(C)ncnc2N2CCOCC2)cc1NS(=O)(=O)c1cnn(C)c1`, the IC50 was 0.56 nM.

(Values after ChEMBL document CHEMBL3638751, “5-alkynyl-pyridines” (2013).)
